Key:
SfMCT R256D = target: T1, SfMCT R256D (Syntrophobacter fumaroxidans, UniProt A0LNN5, R256D); experiment: [14C]L-lactate in vivo uptake assay, mutant R256D; format: cell-based; settings: R256D versus WT
T1 construct: expressed in transfected cells; host or cells: E. coli JA202 (MC4100 glcA::cat lldP::kan), plasmid pEXT20-SfMCT-3C-10His
Procedure: The cultures were grown at 37 °C and 180 r.p.m. in an incubator shaker (Multitron, Infors HT). Protein expression was induced at OD600 ~0.5 by addition of IPTG to a final concentration of 0.25 mM. After 4 h, bacteria were pelleted (5,200 × g, 10 min, room temperature) and resuspended in uptake buffer (20 mM Bis-Tris propane-HCl (pH 6.7), 250 mM KCl) to a bacteria density of OD600 12. […] Furthermore, [3-3 H] propionic acid sodium salt ([^3H]propionate, American Radiolabeled Chemicals, specific activity 30 Ci/mmol), n-[2,3-3 H] butyric acid sodium salt ([^3H]butyrate, American Radiolabeled Chemicals, specific activity 120 Ci/mmol), and [1–14 C] pyruvic acid sodium salt ([^14C]pyruvate, specific activity 0.055 Ci/mmol American Radiolabeled Chemicals) were also used for transport experiments. […] Cpm values of each experiment were normalized with respect to the determined upper plateau value, i.e., the fitted upper plateau value corresponds to 100%. The arithmetic average of three independent experiments was calculated. […] His-tagged transporters were detected using an anti-His5 (Qiagen, catalogue number 34660, primary antibody) at a dilution of 1:3,000 and a goat anti-mouse IgG (H + L) HRP conjugate antibody (Biorad, catalogue number 172-1011, secondary antibody) at a dilution of 1:2,500.

SfMCT [1] = target: T2, SfMCT (Syntrophobacter fumaroxidans, UniProt A0LNN5); experiment: Uptake of [14C]L-lactate and other radiolabeled monocarboxylates into SfMCT expressing E. coli JA202; format: cell-based; settings: for Net uptake of [14C]L-lactate through SfMCT (cpm): SfMCT minus vector
T2 construct: expressed in transfected cells; host or cells: E. coli JA202 (MC4100 glcA::cat lldP::kan), plasmid pEXT20-SfMCT-3C-10His
T2 sequence (A0LNN5 1-412): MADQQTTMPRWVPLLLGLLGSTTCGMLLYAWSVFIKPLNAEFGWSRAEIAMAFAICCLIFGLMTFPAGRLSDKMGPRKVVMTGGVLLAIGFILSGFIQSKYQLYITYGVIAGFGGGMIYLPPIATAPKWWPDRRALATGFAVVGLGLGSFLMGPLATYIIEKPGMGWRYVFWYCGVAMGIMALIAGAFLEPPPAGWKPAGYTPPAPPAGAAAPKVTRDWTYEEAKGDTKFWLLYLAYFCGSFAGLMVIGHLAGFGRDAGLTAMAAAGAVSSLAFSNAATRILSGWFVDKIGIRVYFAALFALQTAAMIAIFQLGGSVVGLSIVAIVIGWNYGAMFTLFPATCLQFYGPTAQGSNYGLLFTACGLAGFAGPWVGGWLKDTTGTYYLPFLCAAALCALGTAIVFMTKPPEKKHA

MCT1 (SLC16A1) = settings: MCT1, L-lactate; cited from earlier work
MCT3 (SLC16A8) = settings: MCT3, L-lactate; cited from earlier work
[2] = test system: vector-transformed E. coli JA202; experiment: Micro pH electrode-based transport assay, vector-transformed E. coli JA202; format: cell-based; settings: 10 mM compound (pH 6.5) added to vector-transformed bacterial suspension pH 6.7
Procedure: (§1) A measuring set up as previously reported[18] was used for micro pH electrode-based transport measurements. SfMCT was expressed in E. coli JA202 (MC4100 glcA::cat lldP::kan)[15] as described for uptake experiments. After expression, bacteria were pelleted (5,200 × g, 10 min, room temperature), washed twice in assay solution (250 mM KCl, 1 mM MgSO4, 2 mM CaCl2; 5,200 × g, 10 min, room temperature) and finally resuspended in assay solution to a bacterial density of OD600 15. Compounds that were assayed for proton-coupled transport were dissolved in assay solution and the pH was adjusted to 6.5. 800 µl of bacteria suspension were transferred into a 2 ml reaction tube (Eppendorf) and the pH value of the bacterial suspension (extracellular medium) was measured using a micro pH electrode with integrated temperature sensor (InLab Micro Pro, Mettler Toledo) under constant stirring. The pH of the bacterial suspension was adjusted to pH 6.7 using potassium hydroxide and hydrochloric acid. The SevenCompact pH-meter (Mettler Toledo), together with LabX direct pH 2.3 software (Mettler Toledo), were used for automatic recording in 15 s intervals. Measurements were initiated by adding 10 mM of the corresponding compound to the bacterial suspension. All experiments were performed at 24 °C.

MCT4 (SLC16A3) = settings: MCT4, L-lactate; cited from earlier work
SfMCT [3] = target: T2, SfMCT; experiment: Micro pH electrode-based transport assay, SfMCT-expressing E. coli JA202; format: cell-based; settings: 10 mM compound (pH 6.5) added to bacterial suspension pH 6.7
Procedure: as §1

T1 sequence (A0LNN5 whole entry R256D): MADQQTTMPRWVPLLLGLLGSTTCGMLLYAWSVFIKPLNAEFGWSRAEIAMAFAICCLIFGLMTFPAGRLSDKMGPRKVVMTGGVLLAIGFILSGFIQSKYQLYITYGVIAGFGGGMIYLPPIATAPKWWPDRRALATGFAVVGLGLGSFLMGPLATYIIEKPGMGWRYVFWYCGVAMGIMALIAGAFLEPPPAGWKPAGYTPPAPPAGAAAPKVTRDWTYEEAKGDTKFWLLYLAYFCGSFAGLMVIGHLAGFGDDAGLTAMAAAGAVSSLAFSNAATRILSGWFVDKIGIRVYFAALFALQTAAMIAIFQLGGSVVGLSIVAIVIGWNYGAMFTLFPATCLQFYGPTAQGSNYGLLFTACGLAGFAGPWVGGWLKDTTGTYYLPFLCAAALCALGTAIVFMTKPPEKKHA

In the case of `C[C@H](O)C(=O)O` [L-lactate], the “increase of [14C]L-lactate transport” value (SfMCT R256D) is reported as ~ 2.5 fold, the “Uptake of [14C]L-lactate by SfMCT (cpm)” value (SfMCT [1]; Time 5 min) is reported as 1353.33 cpm and the “Net uptake of [14C]L-lactate through SfMCT (cpm)” value (“Net uptake” below) (SfMCT [1]; Time 5 min) is reported as 969 cpm. For the same molecule, the “Uptake of [14C]L-lactate by SfMCT (cpm)” value (SfMCT [1]; Time 10 min) was 2978.67 cpm, the “Net uptake” value (SfMCT [1]; Time 10 min) was 2373.33 cpm and the “Uptake of [14C]L-lactate by SfMCT (cpm)” value (SfMCT [1]; Time 20 min) was 6015 cpm. The “Net uptake” value (SfMCT [1]; Time 20 min) was 4812 cpm, the “Uptake of [14C]L-lactate by SfMCT (cpm)” value (SfMCT [1]; Time 40 min) was 11074.3 cpm and the “Net uptake” value (SfMCT [1]; Time 40 min) was 8600.33 cpm. For the same molecule, the “Uptake of [14C]L-lactate by SfMCT (cpm)” value (SfMCT [1]; Time 50 min) was 12325 cpm, the “Net uptake” value (SfMCT [1]; Time 50 min) was 9196.33 cpm and the “Uptake of [14C]L-lactate by SfMCT (cpm)” value (SfMCT [1]; Time 60 min) was 13920.3 cpm. The “Net uptake” value (SfMCT [1]; Time 60 min) was 9981.67 cpm, the “Uptake of [14C]L-lactate by SfMCT (cpm)” value (SfMCT [1]; Time 75 min) was 16014.3 cpm and the “Net uptake” value (SfMCT [1]; Time 75 min) was 10856.3 cpm. The “Uptake of [14C]L-lactate by SfMCT (cpm)” value (SfMCT [1]; Time 90 min) was 17840 cpm, the “Net uptake” value (SfMCT [1]; Time 90 min) was 10528.3 cpm and the “Uptake of [14C]L-lactate” value (SfMCT [1]; [L-lactate] 10 µM) was 8.303 pmol. For the same molecule, the “Uptake of [14C]L-lactate” value (SfMCT [1]; [L-lactate] 50 µM) was 59.1431 pmol, the “Uptake of [14C]L-lactate” value (SfMCT [1]; [L-lactate] 100 µM) was 109.881 pmol and the “Uptake of [14C]L-lactate” value (SfMCT [1]; [L-lactate] 175 µM) was 163.284 pmol. The “Uptake of [14C]L-lactate” value (SfMCT [1]; [L-lactate] 250 µM) was 201.312 pmol, the “Uptake of [14C]L-lactate” value (SfMCT [1]; [L-lactate] 625 µM) was 266.195 pmol and the Km (MCT1 (SLC16A1)) was 3 to 5 mM. The Km (MCT3 (SLC16A8)) was roughly 6 mM, the “proton-coupled transport, change of extracellular pH (in words)” value [2] was “significantly slower and lower pH increase” and the Km (MCT4 (SLC16A3)) was 20 to 35 mM. For the same molecule, the “proton-coupled transport, change of extracellular pH (in words)” value (SfMCT [3]) was “immediate pH increase”.

Source: PMC6573034 (Nature Communications, 2019)
